Results from ChEMBL document CHEMBL1201862, “PubChem BioAssay data set” (2004).
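Tested at 5 concentrations; 48 h exposure; 96-well plates; endpoints linearly interpolated, else capped at highest concentration. GI50 = concentration required for 50% inhibition of growth.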 Active and inactive are the calls of the source. Cut-off read from the data, not from the text of the source: active = GI50 up to about 1.1 µM and inactive = higher.

How the values were obtained:
Assay in all cases: NCI-60 cell line screen, 48 h
[1] = system: UO-31
[2] = system: K562
[3] = system: HOP-92
[4] = system: M14
[5] = system: HT-29
[6] = system: MDA-MB-435
[7] = system: NCI-H522
[8] = system: CAKI-1
[9] = system: SF-295
[10] = system: SNB-19
[11] = system: NCI-H23
[12] = system: PC-3
[13] = system: UACC-62
[14] = system: COLO 205
[15] = system: SK-MEL-28
[16] = system: MOLT-4
[17] = system: BT-549
[18] = system: TK-10
[19] = system: SF-268
[20] = system: SK-MEL-2
[21] = system: MDA-MB-231
[22] = system: SK-MEL-5
[23] = system: OVCAR-5
[24] = system: MDA-N
[25] = system: NCI/ADR-RES
[26] = system: NCI-H460
[27] = system: KM12
[28] = system: EKVX
[29] = system: MCF7
[30] = system: RXF 393
[31] = system: SR
[32] = system: T47D
[33] = system: OVCAR-8
[34] = system: SN12C
[35] = system: SW-620
[36] = system: UACC-257
[37] = system: IGROV-1
[38] = system: HCT-15
[39] = system: SF-539
[40] = system: OVCAR-3
[41] = system: A549
[42] = system: HOP-62
[43] = system: HCC 2998
[44] = system: NCI-H226
[45] = system: 786-0
[46] = system: SNB-75
[47] = system: Hs-578T
[48] = system: U-251
[49] = system: ACHN
[50] = system: SK-OV-3
[51] = system: DU-145
[52] = system: RPMI-8226
[53] = system: Malme-3M
[54] = system: OVCAR-4
[55] = system: A498
[56] = system: LOX IMVI
[57] = system: HCT-116
[58] = system: CCRF-CEM

Measured: GI50

COc1ccc(/N=C2\C(=N/c3ccc(OC)cc3)N(S(=O)(=O)c3ccccc3)C(=S)N2c2ccccc2)cc1
inactive: [1] > 100 µM | [2] > 100 µM | [3] > 100 µM | [4] > 100 µM | [5] > 100 µM | [6] > 100 µM | [7] 86.3 µM | [8] > 100 µM | [9] > 100 µM | [10] > 100 µM | [11] > 100 µM | [12] > 100 µM | [13] > 100 µM | [14] > 100 µM | [15] > 100 µM | [16] > 100 µM | [17] > 100 µM | [18] > 100 µM | [19] > 100 µM | [20] > 100 µM | [21] > 100 µM | [22] > 100 µM | [23] > 100 µM | [24] > 100 µM | [25] > 100 µM | [26] > 100 µM | [27] > 100 µM | [28] > 100 µM | [29] > 100 µM | [30] > 100 µM | [31] > 100 µM | [32] > 100 µM | [33] > 100 µM | [34] > 100 µM | [35] > 100 µM | [36] > 100 µM | [37] > 100 µM | [39] > 100 µM | [40] > 100 µM | [41] > 100 µM | [42] > 100 µM | [43] > 100 µM | [44] > 100 µM | [45] > 100 µM | [46] > 100 µM | [47] > 100 µM | [48] > 100 µM | [49] > 100 µM | [50] > 100 µM | [51] > 100 µM | [52] > 100 µM | [53] > 100 µM
> 100 µM: [38]

CCOC(=O)/C=C/[C@@H](CC)O[Si](C(C)C)(C(C)C)C(C)C
> 100 µM: [38]
inactive: [1] > 100 µM | [2] > 100 µM | [3] > 100 µM | [5] > 100 µM | [6] > 100 µM | [7] > 100 µM | [8] > 100 µM | [9] 48.4 µM | [10] > 100 µM | [11] > 100 µM | [12] 61.7 µM | [13] > 100 µM | [14] > 100 µM | [16] > 100 µM | [17] > 100 µM | [18] > 100 µM | [19] > 100 µM | [20] > 100 µM | [21] > 100 µM | [22] > 100 µM | [54] > 100 µM | [23] > 100 µM | [24] > 100 µM | [25] > 100 µM | [26] > 100 µM | [27] > 100 µM | [28] > 100 µM | [29] 90.2 µM | [31] 74.6 µM | [32] > 100 µM | [33] > 100 µM | [35] > 100 µM | [36] 67.3 µM | [37] > 100 µM | [39] > 100 µM | [40] > 100 µM | [41] > 100 µM | [55] > 100 µM | [56] > 100 µM | [42] 67.6 µM | [43] > 100 µM | [44] > 100 µM | [45] > 100 µM | [46] > 100 µM | [47] > 100 µM | [48] > 100 µM | [57] > 100 µM | [49] > 100 µM | [50] > 100 µM | [58] 42.2 µM | [51] > 100 µM | [52] 50.6 µM | [53] > 100 µM
